#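 Cultured in 96-well plates, cells were exposed to test compound for 48 hours across five concentrations. Here, GI50 denotes the concentration required for 50% inhibition of growth. TGI: total growth inhibition.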
# Tests used:
# Test in all cases: NCI tumour cell line growth inhibition, 48 h
# NCI/ADR-RES ovarian = system: NCI/ADR-RES ovarian
# OVCAR-8 ovarian = system: OVCAR-8 ovarian
# UO-31 renal = system: UO-31 renal
# NCI-H460 lung = system: NCI-H460 lung
# MCF7 breast = system: MCF7 breast
# HT29 colon = system: HT29 colon
# HCT-116 colon = system: HCT-116 colon
# UACC-62 melanoma = system: UACC-62 melanoma
# SNB-75 CNS = system: SNB-75 CNS
# MALME-3M melanoma = system: MALME-3M melanoma
# SK-MEL-5 melanoma = system: SK-MEL-5 melanoma
# IGROV1 ovarian = system: IGROV1 ovarian
# HS 578T breast = system: HS 578T breast
# SN12C renal = system: SN12C renal
# T-47D breast = system: T-47D breast
# LOX IMVI melanoma = system: LOX IMVI melanoma
# SR leukemia = system: SR leukemia
# SK-MEL-2 melanoma = system: SK-MEL-2 melanoma
# M14 melanoma = system: M14 melanoma
# HOP-92 NSCLC = system: HOP-92 NSCLC
# RPMI-8226 leukemia = system: RPMI-8226 leukemia
# SK-MEL-28 melanoma = system: SK-MEL-28 melanoma
# HCC-2998 colon = system: HCC-2998 colon
# NCI-H226 lung = system: NCI-H226 lung
# OVCAR-3 ovarian = system: OVCAR-3 ovarian
# NCI-H522 lung = system: NCI-H522 lung
# A498 renal = system: A498 renal
# COLO 205 colon = system: COLO 205 colon
# OVCAR-5 ovarian = system: OVCAR-5 ovarian
# KM12 colon = system: KM12 colon
# 786-0 renal = system: 786-0 renal
# UACC-257 melanoma = system: UACC-257 melanoma
# MOLT-4 leukemia = system: MOLT-4 leukemia
# SF-539 CNS = system: SF-539 CNS
# U251 CNS = system: U251 CNS
# RXF 393 renal = system: RXF 393 renal
# CAKI-1 renal = system: CAKI-1 renal
# HCT-15 colon = system: HCT-15 colon
# MDA-MB-231 breast = system: MDA-MB-231 breast
# PC-3 prostate = system: PC-3 prostate
# DU-145 prostate = system: DU-145 prostate
# BT-549 breast = system: BT-549 breast
# SW-620 colon = system: SW-620 colon
# CCRF-CEM leukemia = system: CCRF-CEM leukemia
# HOP-62 NSCLC = system: HOP-62 NSCLC
# A549 NSCLC = system: A549 NSCLC
# SNB-19 CNS = system: SNB-19 CNS
# SF-268 CNS = system: SF-268 CNS
# SK-OV-3 ovarian = system: SK-OV-3 ovarian
# TK-10 renal = system: TK-10 renal
# NCI-H23 lung = system: NCI-H23 lung
# ACHN renal = system: ACHN renal
# OVCAR-4 ovarian = system: OVCAR-4 ovarian
# K-562 leukemia = system: K-562 leukemia
# MDA-MB-435 = system: MDA-MB-435
# HL-60(TB) leukemia = system: HL-60(TB) leukemia
structure (smiles),measurement,setting,value
CC[C@H](C)[C@H]1NC(=O)[C@@H](N[C@](C)(O)[C@@H](N)CC(C)C)[C@@H](C)OC(=O)[C@H](Cc2ccc(OC)cc2)N(C)C(=O)[C@@H]2CCCN2C(=O)[C@H](CC(C)C)NC(=O)[C@@H](C)C(=O)[C@H](C(C)C)OC(=O)C[C@@H]1O,GI50,NCI/ADR-RES ovarian,2180 nM
same,TGI,NCI/ADR-RES ovarian,46500 nM
same,GI50,OVCAR-8 ovarian,16.1 nM
same,TGI,OVCAR-8 ovarian,355 nM
same,GI50,UO-31 renal,343 nM
same,TGI,UO-31 renal,3310 nM
same,GI50,NCI-H460 lung,11 nM
same,TGI,NCI-H460 lung,572 nM
same,GI50,MCF7 breast,7.35 nM
same,TGI,MCF7 breast,166 nM
same,GI50,HT29 colon,6.95 nM
same,TGI,HT29 colon,702 nM
same,GI50,HCT-116 colon,6.08 nM
same,TGI,HCT-116 colon,50000 nM
same,GI50,UACC-62 melanoma,10.9 nM
same,TGI,UACC-62 melanoma,160 nM
same,GI50,SNB-75 CNS,21.5 nM
same,TGI,SNB-75 CNS,436 nM
same,GI50,MALME-3M melanoma,11.7 nM
same,TGI,MALME-3M melanoma,133 nM
same,GI50,SK-MEL-5 melanoma,18 nM
same,TGI,SK-MEL-5 melanoma,665 nM
same,GI50,IGROV1 ovarian,13.3 nM
same,TGI,IGROV1 ovarian,413 nM
same,GI50,HS 578T breast,16.4 nM
same,TGI,HS 578T breast,467 nM
same,GI50,SN12C renal,11.5 nM
same,TGI,SN12C renal,316 nM
same,GI50,T-47D breast,8.97 nM
same,TGI,T-47D breast,301 nM
same,GI50,LOX IMVI melanoma,12 nM
same,TGI,LOX IMVI melanoma,209 nM
same,GI50,SR leukemia,6.03 nM
same,TGI,SR leukemia,42.2 nM
same,GI50,SK-MEL-2 melanoma,9.72 nM
same,TGI,SK-MEL-2 melanoma,49.9 nM
same,GI50,M14 melanoma,21.5 nM
same,TGI,M14 melanoma,289 nM
same,GI50,HOP-92 NSCLC,26.2 nM
same,TGI,HOP-92 NSCLC,391 nM
same,GI50,RPMI-8226 leukemia,34.7 nM
same,TGI,RPMI-8226 leukemia,177 nM
same,GI50,SK-MEL-28 melanoma,11.7 nM
same,TGI,SK-MEL-28 melanoma,95.4 nM
same,GI50,HCC-2998 colon,19.7 nM
same,TGI,HCC-2998 colon,361 nM
same,GI50,NCI-H226 lung,17.5 nM
same,TGI,NCI-H226 lung,501 nM
same,GI50,OVCAR-3 ovarian,17.8 nM
same,TGI,OVCAR-3 ovarian,232 nM
same,GI50,NCI-H522 lung,11.4 nM
same,TGI,NCI-H522 lung,143 nM
same,GI50,A498 renal,37 nM
same,TGI,A498 renal,403 nM
same,GI50,COLO 205 colon,10.8 nM
same,TGI,COLO 205 colon,73 nM
same,GI50,OVCAR-5 ovarian,20.4 nM
same,TGI,OVCAR-5 ovarian,799 nM
same,GI50,KM12 colon,< 10.8 nM
same,TGI,KM12 colon,829 nM
same,GI50,786-0 renal,22.5 nM
same,TGI,786-0 renal,2940 nM
same,GI50,UACC-257 melanoma,40.8 nM
same,TGI,UACC-257 melanoma,337 nM
same,GI50,MOLT-4 leukemia,13.3 nM
same,TGI,MOLT-4 leukemia,575 nM
same,GI50,SF-539 CNS,16.5 nM
same,TGI,SF-539 CNS,185 nM
same,GI50,U251 CNS,11.9 nM
same,TGI,U251 CNS,188 nM
same,GI50,RXF 393 renal,19 nM
same,TGI,RXF 393 renal,173 nM
same,GI50,CAKI-1 renal,241 nM
same,TGI,CAKI-1 renal,2590 nM
same,GI50,HCT-15 colon,217 nM
same,TGI,HCT-15 colon,22900 nM
same,GI50,MDA-MB-231 breast,26.3 nM
same,TGI,MDA-MB-231 breast,233 nM
same,GI50,PC-3 prostate,16.4 nM
same,TGI,PC-3 prostate,208 nM
same,GI50,DU-145 prostate,9.03 nM
same,TGI,DU-145 prostate,509 nM
same,GI50,BT-549 breast,19.5 nM
same,TGI,BT-549 breast,406 nM
same,GI50,SW-620 colon,16.7 nM
same,TGI,SW-620 colon,6060 nM
same,GI50,CCRF-CEM leukemia,11.3 nM
same,TGI,CCRF-CEM leukemia,232 nM
same,GI50,HOP-62 NSCLC,14.6 nM
same,TGI,HOP-62 NSCLC,601 nM
same,GI50,A549 NSCLC,11.5 nM
same,TGI,A549 NSCLC,470 nM
same,GI50,SNB-19 CNS,13.7 nM
same,TGI,SNB-19 CNS,461 nM
same,GI50,SF-268 CNS,13.2 nM
same,TGI,SF-268 CNS,348 nM
same,GI50,SK-OV-3 ovarian,19.1 nM
same,TGI,SK-OV-3 ovarian,1190 nM
same,GI50,TK-10 renal,39.7 nM
same,TGI,TK-10 renal,557 nM
same,GI50,NCI-H23 lung,12.2 nM
same,TGI,NCI-H23 lung,146 nM
same,GI50,ACHN renal,42.8 nM
same,TGI,ACHN renal,2670 nM
same,GI50,OVCAR-4 ovarian,18.9 nM
same,TGI,OVCAR-4 ovarian,365 nM
same,GI50,K-562 leukemia,15.6 nM
same,TGI,K-562 leukemia,1800 nM
same,GI50,MDA-MB-435,15.1 nM
same,TGI,MDA-MB-435,397 nM
same,GI50,HL-60(TB) leukemia,21.8 nM
same,TGI,HL-60(TB) leukemia,281 nM

# From PubChem BioAssay (NCI)
